Measurements as given in patent US11103525B2, “Idoxuridine and its analogs as neuroprotectans for the treatment of parkinsonism” (priority 2017, dated 2021).

How the values were obtained:
[1] = compared with idoxuridine; cited from earlier work
[2] = target: T1, hepatic aldehyde oxidase (Homo sapiens, UniProt Q06278); conditions: cited from earlier work
T1 sequence (Q06278 1-1338): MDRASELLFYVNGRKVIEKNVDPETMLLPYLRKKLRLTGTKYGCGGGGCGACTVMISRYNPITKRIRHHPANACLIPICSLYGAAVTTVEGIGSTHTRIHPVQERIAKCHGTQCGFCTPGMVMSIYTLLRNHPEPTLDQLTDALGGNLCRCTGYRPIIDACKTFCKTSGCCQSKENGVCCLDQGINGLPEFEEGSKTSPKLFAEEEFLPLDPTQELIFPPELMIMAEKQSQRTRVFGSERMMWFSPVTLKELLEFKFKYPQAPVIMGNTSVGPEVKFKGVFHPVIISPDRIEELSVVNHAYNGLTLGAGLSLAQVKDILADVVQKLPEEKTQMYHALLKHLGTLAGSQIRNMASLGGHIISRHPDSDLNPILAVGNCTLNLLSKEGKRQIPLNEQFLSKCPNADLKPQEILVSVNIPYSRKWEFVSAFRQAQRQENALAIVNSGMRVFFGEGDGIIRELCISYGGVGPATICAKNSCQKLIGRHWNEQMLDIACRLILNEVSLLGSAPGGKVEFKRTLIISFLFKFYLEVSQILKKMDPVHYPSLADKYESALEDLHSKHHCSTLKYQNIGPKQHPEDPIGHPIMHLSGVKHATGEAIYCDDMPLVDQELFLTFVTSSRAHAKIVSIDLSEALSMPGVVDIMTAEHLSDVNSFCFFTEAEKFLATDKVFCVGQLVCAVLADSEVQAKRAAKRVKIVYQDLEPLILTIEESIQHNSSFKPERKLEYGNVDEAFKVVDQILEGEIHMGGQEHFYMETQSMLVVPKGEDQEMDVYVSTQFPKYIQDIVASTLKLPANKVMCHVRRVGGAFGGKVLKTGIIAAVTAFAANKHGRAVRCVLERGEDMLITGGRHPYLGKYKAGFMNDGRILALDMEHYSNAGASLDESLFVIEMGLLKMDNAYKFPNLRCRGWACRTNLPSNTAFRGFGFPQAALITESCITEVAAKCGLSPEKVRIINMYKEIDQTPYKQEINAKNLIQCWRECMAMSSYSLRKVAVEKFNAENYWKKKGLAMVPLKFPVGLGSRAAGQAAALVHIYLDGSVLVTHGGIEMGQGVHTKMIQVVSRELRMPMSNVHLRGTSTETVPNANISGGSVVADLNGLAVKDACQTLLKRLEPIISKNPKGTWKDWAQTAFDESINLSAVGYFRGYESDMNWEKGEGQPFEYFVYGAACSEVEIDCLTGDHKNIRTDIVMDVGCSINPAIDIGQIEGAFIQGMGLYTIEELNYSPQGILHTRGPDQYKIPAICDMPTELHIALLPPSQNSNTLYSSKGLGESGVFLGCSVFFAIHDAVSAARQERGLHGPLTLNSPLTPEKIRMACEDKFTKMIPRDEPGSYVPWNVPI

[3] = tested on: GPR37-tGFP; experiment: GPR37-tGFP translocation assay; type: cell-based, mouse; conditions: for effect in GPR37-translocation assay (hit rating): tested at 2, 10 and 20 μM
Method: FIG. 2. Schematic representation of the rationale and the basic steps of GPR37-translocation assay. A. GPR37 is prone to misfolding and aggregation, which, in metabolically-active cells, are followed by degradation and results in low levels of functional receptor in the plasma membrane. The primary targets of the screening assay are compounds that can directly or indirectly facilitate maturation and trafficking of GPR37 to the plasma membrane. B. N2a cells stably expressing GPR37-tGFP are seeded in poly-D-Lysine coated 384 well plates at density 5000 cells/well. 24 h later cells are treated with compounds, including positive and negative controls, and incubated for 72 h. Then cells are fixed with 4% PFA and additionally stained with Hoechst 33342 (nuclei) and HCS CellMask™ red (cell body) to enable segmentation of the plasma membrane. Acquisition of fluorescence images is done using ImageXpress high content screening system (Molecular Devices). Quantification of GPR37-tGFP levels in the plasma membrane is done using CellProfiler software. FIG. 3. Schematic representation of Image analysis pipeline and final outcome data. Segmentation of the plasma membrane is performed in five main steps: 1) identification of nuclei (primary objects) using nuclear stain, 2) determination of cell borders using primary objects as seeds and growing these objects in respect of tGFP and HCS CellMask™ fluorescence intensity (secondary objects), 3) shrinking and expending secondary objects, 4) subtraction of shrunken cells from expended cells which results in membrane segmentation (tertiary objects), 5) tGFP fluorescence intensity is calculated within tertiary objects. Z′ factor is a quality measure of an assay which describes how well separated positive and negative controls are. Assays having Z′ factors above 0.5 are considered good assays. N2a cells stably expressing GPR37-tGFP were seeded in 384 BDFalcon BioCoat Poly-D-Lysine coated plates at a density of 5000 cells/well, and 50 μL incubation volume of maintenance medium. Cells were incubated at 37° C., 5% CO2 using humidity chamber. 24 h later, the cells were treated with 10 μL of compounds of desired concentration, including positive (2 mM dibutyryl-cAMP+0.5 mM 4-phenylbutyrate) and negative controls (0.1% DMSO), and incubated for 72 h. Cells were fixed with 4% PFA by adding 20 μL of 16% PFA directly to cell medium, incubating for 20 min and washing with PBS-Tween20 (0.05%). Directly after fixation cells were stained for nuclei with Hoechst 33342 (0.01 mg/mL) and for cell bodies with HCS CellMask™ Red stain (Thermo Fisher Scientific Inc.) (0.001 mg/mL) by incubating with the dyes for 30 min in PBS-Tween20 (0.05%) followed by washing with PBS. All the additional steps, including cell seeding were performed using Multidrop Combi dispenser (Thermo Scientific) and washing steps were done by means of HydroSpeed™ plate washer (Tecan). The images were captured using ImageXpress Micro XLS Widefield High-Content Analysis System (Molecular Devices, LLC) in 3 fluorescent channels (ImageXpress filters are listed, followed by excitation/emission in nm): DAPI (387/447), FITC (482/536) and TexasRed (562/624). Binning 2 was applied during the acquisition and digital confocal option was used for FITC and TexasRed filters. Typically, 5 images were taken per well at magnification 20× and stored as 16 bit, gray scale tif files along with metadata in Oracle database, for further analysis. Quantification of GPR37-tGFP levels in the plasma membrane was done using CellProfiler™ software. CellProfiler™ is an open-source cell image analysis software available at www.cellprofiler.org. An image analysis pipeline used for membrane segmentation consisted of 5 main steps (FIG. 3): 1) segmentation of nuclei (primary objects); 2) segmentation of cell bodies (secondary objects); 3) shrinking and expending cell bodies; 4) subtraction of shrank cells from expanded cells (tertiary objects—membranes); 5) calculating tGFP fluorescence in the membranes. […]

## O=c1ncc(I)cn1[C@H]1C[C@H](O)[C@@H](CO)O1 [ropidoxuridine, 1-((2R,4S,5R)-4-hydroxy-5-(hydroxymethyl)tetrahydrofuran-2-yl)-5-iodopyrimidin-2(1H)-one]
[1]
  stability in vivo: more stable
  toxicity in vivo: less toxic
[2]
  metabolic conversion to idoxuridine: efficiently converted to idoxuridine

## O=c1[nH]c(=O)n([C@H]2C[C@H](O)[C@@H](CO)O2)cc1O [Compound 2, 5-hydroxy-1-((2R,4S,5R)-4-hydroxy-5-(hydroxymethyl)tetrahydrofuran-2-yl)pyrimidine-2,4(1H,3H)-dione]
[3]
  effect in GPR37-translocation assay (hit rating): slight positive effect

## Nc1cccc(-c2cn([C@H]3C[C@H](O)[C@@H](CO)O3)c(=O)[nH]c2=O)c1 [Compound 17, 5-(3-aminophenyl)-1-((2R,4S,5R)-4-hydroxy-5-(hydroxy-methyl)tetrahydrofuran-2-yl)pyrimidine-2,4(1H,3H)-dione]
[3]
  effect in GPR37-translocation assay (hit rating): strong hit

## C#Cc1cn([C@H]2C[C@H](O)[C@@H](CO)O2)c(=O)[nH]c1=O [Compound 4, 5-ethynyl-1-((2R,4S,5R)-4-hydroxy-5-(hydroxymethyl)-tetrahydrofuran-2-yl)pyrimidine-2,4(1H,3H)-dione]
[3]
  effect in GPR37-translocation assay (hit rating): slight positive effect

## CCCC(=O)Nc1ncnc2c1ncn2[C@@H]1O[C@@H]2COP(=O)(O)O[C@H]2[C@H]1OC(=O)CCC [dibutyryl-cAMP]
[3]; without starvation, used as positive control
  increase of GPR37-tGFP in the plasma membrane: remarkable increase
